From patent US20250099383A1, “COMPOSITIONS AND METHODS FOR DELIVERY OF NUCLEIC ACIDS” (Poseida Therapeutics, Inc., priority 2022, published 2025)

What was measured:
[1] = Body weight change of mice after LNP administration; format: in vivo, BALB/C mice; details: for Ave weight change (gram) n = 3: 24 hrs after 0.5 mg/kg LNP encapsulating firefly luciferase mRNA, adult female BALB/C mice
Method: The mice above were also monitored for changes in body weight after LNP delivery. Mice were manually weighed on a scale before LNP dosage and then weighed 24 hrs after administration of 0.5 mg/kg of LNP article encapsulating Cleancap firefly luciferase mRNA. The average of weight change n=3 is reported below.
In addition, the body weight of mice treated with the LNP compositions of Table 25 was assessed prior to intravenous administration and twenty-four hours post-administration and the body weights at baseline and post-treatment were compared. The average percentage of body weight change for each group of mice treated with each LNP composition of Table 25 is shown in Table 28. […]

[2] = system: liver cells; assay: In vivo LNP delivery of firefly luciferase mRNA to liver, bioluminescent imaging (BLI); set-up: species or system BALB/C mice; details: 0.5 mg/kg fLuciferase mRNA i.v., BLI at 4 hr; for Ave flux (p/s) n = 3: adult female BALB/C mice, LNP as in Example 66
Method: Adult female BALB/C mice (n=3/group) were intravenously administered 0.5 mg/kg of 5′-CleanCap-fLuciferase mRNA (TriLink Biotech) formulated with LNP compositions as described in Example 66. One group of mice was treated with vehicle (PBS, Thermo Fisher Scientific, USA) as a negative control.
The location and extent of luciferase expression in treated and control mice were determined at 4 hr by bioluminescent imaging (BLI) of anesthetized mice using an IVIS Lumina in vivo imaging system (Perkin Elmer) according to the manufacturer's instructions. Briefly, mice were anesthetized using isoflurane in oxygen, and placed supine on a heated stage. Mice were then administered D-luciferin (Perkin-Elmer #122799) IP, and BLI was performed.
Adult female BALB/C mice (n=3/group) were intravenously administered 0.5 mg/kg of 5′-CleanCap-fLuciferase mRNA (TriLink Biotech) formulated with the LNP compositions shown in Table 25. One group of mice was treated with vehicle (PBS, Thermo Fisher Scientific, USA) as a negative control. […]

[3] = Physical characteristics of LNPs (particle size, PDI); format: physicochemical; details: for PDI DNA / Particle Size (nm) DNA: LNP with Fluc DNA, compound/DOPE/Cholesterol/DMG-PEG2000 38/50/10.0/2.0, Lipid:DNA 45:1 (w/w); for PDI RNA / Particle Size (nm) RNA: LNP with Fluc mRNA, compound/DOPE/Cholesterol/DMG-PEG2000 41.44/45.85/10/2.7, Lipid:RNA 40:1 (w/w)
Method: LNP compositions of the present disclosure comprising exemplary compounds of Formula (I) were prepared by combining various percentages of an exemplary compound of Formula (I), the phospholipid DOPE, the structural lipid cholesterol (Chol) and 1,2-dimyristoyl-sn-glycerol methoxypolyethylene glycol (DMG-PEG2000; Avanti Polar Lipids, Alabaster, Alabama, USA).
Individual 25 mg/ml stock solutions were prepared by solubilizing the lipids in 200-proof HPLC-grade ethanol and stock solutions were stored at −80° C. until formulated. At the time of formulation, the lipid stock solutions were briefly allowed to equilibrate to room temp and then placed on a hot plate maintained at a temperature range of 50-55° C.
A 1 mg/ml solution of the desired mRNA or DNA to be incorporated into the LNPs was added to 150 mM sodium acetate buffer (pH 5.2) to form a stock solution and kept on ice. The aqueous mRNA or DNA was then added to the lipids as shown in Table 4 or 5 and hand-mixed vigorously with a single channel pipettor.
The resultant mRNA or DNA LNP compositions were then transferred to a Repligen Float-A-Lyzer dialysis device-having a molecular weight cut off (MWCO) of 8-10 kDa (Spectrum Chemical Mfg. Corp, CA, USA) and processed by dialysis against phosphate buffered saline (PBS) (dialysate: dialysis buffer volume at least 1:200 v/v), pH 7.4 overnight at 4° C. (or alternatively room temperature for at least 4 hours), to remove the 25% ethanol and achieve a complete buffer exchange. In some experiments the LNPs were further concentrated by in an Amicon® Ultra-4 centrifugal filter unit, MWCO-30 kDa (Millipore Sigma, USA) spun at ˜4100 x g in an ultracentrifuge. The mRNA and DNA LNPs were then stored at 4° C. until further use.
LNP compositions of the present disclosure comprising mRNA or DNA encoding firefly luciferase (hereafter “Fluc”; TriLink) and COMPOUNDS 5-49 were prepared as described in Example 61 by combining one of COMPOUNDS 5-49, the phospholipid DOPE, the structural lipid cholesterol (Chol) and 1,2-dimyristoyl-sn-glycerol methoxypolyethylene glycol (DMG-PEG2000) in the percentages presented in Tables 6 and 7:
The physical characteristics of the resulting LNPs were analyzed.
A 1 mg/ml solution of the 5′-CleanCap--fLuciferase mRNA (TriLink Biotech) to be incorporated into the LNPs was added to 150 mM sodium acetate buffer (pH 5.2) to form a stock solution and kept on ice. The lipid phase was mixed with the aqueous mRNA phase inside a microfluidic chip using a NanoAssemblr® instrument (Precision Nanosystems, Vancouver, BC, Canada) according to the manufacturer's instructions to form LNP compositions comprising encapsulated mRNAs.
The average particle size diameter of the LNPs was approximately 75-150 nm.

| SMILES | PDI DNA [3] | Particle Size (nm) DNA [3] [nm] | PDI RNA [3] | Particle Size (nm) RNA [3] [nm] | Ave weight change (gram) n = 3 [1] [gram] | Ave flux (p/s) n = 3 [2] [p/s] | % Body Weight Change 24 hr ([1]; LNP compositions of Table 25, 0.5 mg/kg fLuciferase mRNA i.v., 24 hr post-administration vs baseline) | Mean Liver Luciferase Flux (p/s) ([2]; LNP compositions of Table 25, adult female BALB/C, n=3) |
| --- | --- | --- | --- | --- | --- | --- | --- | --- |
| CC(C)CCCC1CCC(C(=O)OCCOC(=O)CCN(CCC(=O)OCCOC(=O)C2CCC(CCCC(C)C)CC2)CCN(CCN(CCC(=O)OCCOC(=O)C2CCC(CCCC(C)C)CC2)CCC(=O)OCCOC(=O)C2CCC(CCCC(C)C)CC2)CCN(CCC(=O)OCCOC(=O)C2CCC(CCCC(C)C)CC2)CCC(=O)OCCOC(=O)C2CCC(CCCC(C)C)CC2)CC1 (centres unmarked) [Compound 31] | 0.063 | 267.9 | 0.145 | 339.9 | −4.10 | 2.24E+09 |  |  |
| CC(C)CCCC(C)CCCC1CCC(C(=O)OCCOC(=O)CCN(CCCCCCN(CCC(=O)OCCOC(=O)C2CCC(CCCC(C)CCCC(C)C)CC2)CCC(=O)OCCOC(=O)C2CCC(CCCC(C)CCCC(C)C)CC2)CCC(=O)OCCOC(=O)C2CCC(CCCC(C)CCCC(C)C)CC2)CC1 (centres unmarked) [Compound 14] | 0.219 | 348.8 | 0.104 | 334.8 |  |  |  |  |
| CC(C)=CCC/C(C)=C/CCC1=CCC(C(=O)OCCN(C)CCO)CC1 (centres unmarked) [Compound 40] | 0.146 | 251.2 | 0.179 | 255.5 |  |  |  |  |
| CCN(CCOC(=O)C1CC=C(CCC=C(C)C)CC1)CCOC(=O)C1CC=C(CCC=C(C)C)CC1 (centres unmarked) [Compound 43] | 0.185 | 286.7 | 0.079 | 310.1 |  |  |  |  |
| CC(C)=CCC/C(C)=C/CCC1=CCC(C(=O)OCCN(C)CCOC(=O)C2CC=C(CC/C=C(\C)CCC=C(C)C)CC2)CC1 (centres unmarked) [Compound 32] | 0.09 | 289.2 | 0.108 | 269.6 |  |  |  |  |
| CC(C)CCCC1CCC(C(=O)OCCOC(=O)CCN(CCCN(C)C)CCC(=O)OCCOC(=O)C2CCC(CCCC(C)C)CC2)CC1 (centres unmarked) [Compound 25] | 0.227 | 188.5 | 0.143 | 177.9 |  |  |  |  |
| CCN(CCOC(=O)C1CC=C(CC/C=C(\C)CCC=C(C)C)CC1)CCOC(=O)C1CC=C(CC/C=C(\C)CCC=C(C)C)CC1 (centres unmarked) [Compound 33] | 0.087 | 302 | 0.079 | 332.9 |  |  |  |  |
| CC(C)=CCC/C(C)=C/CCC1=CCC(C(=O)CCCN(CCO)CCOC(=O)C2CC=C(CC/C=C(\C)CCC=C(C)C)CC2)CC1 (centres unmarked) [Compound 39] | 0.138 | 272.5 | 0.064 | 297.1 |  |  |  |  |

Second part, led by results:

| PDI DNA [3] | Particle Size (nm) DNA [3] [nm] | PDI RNA [3] | Particle Size (nm) RNA [3] [nm] | SMILES | Ave weight change (gram) n = 3 [1] [gram] | Ave flux (p/s) n = 3 [2] [p/s] | % Body Weight Change 24 hr ([1]; LNP compositions of Table 25, 0.5 mg/kg fLuciferase mRNA i.v., 24 hr post-administration vs baseline) | Mean Liver Luciferase Flux (p/s) ([2]; LNP compositions of Table 25, adult female BALB/C, n=3) |
| --- | --- | --- | --- | --- | --- | --- | --- | --- |
| 0.167 | 319.6 | 0.073 | 312.8 | CC(C)=CCC/C(C)=C/CCC1=CCC(C(=O)OCCOC(=O)CCN(CCC(=O)OCCOC(=O)C2CC=C(CC/C=C(\C)CCC=C(C)C)CC2)CC(C)N(CCC(=O)OCCOC(=O)C2CC=C(CC/C=C(\C)CCC=C(C)C)CC2)CCC(=O)OCCOC(=O)C2CC=C(CC/C=C(\C)CCC=C(C)C)CC2)CC1 (centres unmarked) [Compound 8] | −2.53 | 1.10E+07 |  |  |
| 0.123 | 330.9 | 0.129 | 314.0 | CC(C)=CCC/C(C)=C/CCC1=CCC(C(=O)OCCOC(=O)CCN(CCCN2CCN(CCCN(CCC(=O)OCCOC(=O)C3CC=C(CC/C=C(\C)CCC=C(C)C)CC3)CCC(=O)OCCOC(=O)C3CC=C(CC/C=C(\C)CCC=C(C)C)CC3)CC2)CCC(=O)OCCOC(=O)C2CC=C(CC/C=C(\C)CCC=C(C)C)CC2)CC1 (centres unmarked) [Compound 9, ((3,3′,3″,3′″-((piperazine-1,4-diylbis(propane-3,1-diyl))bis(azanetriyl))tetrakis(propanoyl))tetrakis(oxy))tetrakis(ethane-2,1-diyl)tetrakis(4-((E)-4,8-dimethylnona-3,7-dien-1-yl)cyclohex-3-enecarboxylate)] | −3.03 | 1.77E+10 | +1.4% | 4.62e10 |
| 0.183 | 297.6 | 0.115 | 362.5 | CC(C)CCCC(C)CCCC1CCC(C(=O)OCCOC(=O)CCN(CCC(=O)OCCOC(=O)C2CCC(CCCC(C)CCCC(C)C)CC2)CC(C)N(CCC(=O)OCCOC(=O)C2CCC(CCCC(C)CCCC(C)C)CC2)CCC(=O)OCCOC(=O)C2CCC(CCCC(C)CCCC(C)C)CC2)CC1 (centres unmarked) [Compound 15] |  |  |  |  |
| 0.177 | 253.9 | 0.149 | 293.9 | CC(C)CCCC1CCC(C(=O)OCCOC(=O)CCN(CCCCCCN(CCC(=O)OCCOC(=O)C2CCC(CCCC(C)C)CC2)CCC(=O)OCCOC(=O)C2CCC(CCCC(C)C)CC2)CCC(=O)OCCOC(=O)C2CCC(CCCC(C)C)CC2)CC1 (centres unmarked) [Compound 27] |  |  |  |  |
| 0.206 | 268.3 | 0.102 | 296.9 | CC(C)=CCCC1=CCC(C(=O)OCCOC(=O)CCN(CCC(=O)OCCOC(=O)C2CC=C(CCC=C(C)C)CC2)CC(C)N(CCC(=O)OCCOC(=O)C2CC=C(CCC=C(C)C)CC2)CCC(=O)OCCOC(=O)C2CC=C(CCC=C(C)C)CC2)CC1 (centres unmarked) [Compound 21] |  |  |  |  |
| 0.154 | 167 | 0.260 | 202.2 | CC(C)=CCC/C(C)=C/CCC1=CCC(C(=O)OCCOC(=O)CCN(CCC(=O)OCCOC(=O)C2CC=C(CC/C=C(\C)CCC=C(C)C)CC2)CCN2CCCCC2)CC1 (centres unmarked) [Compound 6, (E)-((3,3′-((2-(piperidin-1-yl)ethyl)azanediyl)bis(propanoyl))bis(oxy)) bis(ethane-2,1-diyl)bis(4-((E)-4,8-dimethylnona-3,7-dien-1-yl)cyclohex-3-enecarboxylate)] |  |  |  |  |
| 0.221 | 299.7 | 0.099 | 441.0 | CC(C)=CCC/C(C)=C/CCC1=CCC(C(=O)OCCOC(=O)CCN(CCCCCCN(CCC(=O)OCCOC(=O)C2CC=C(CC/C=C(\C)CCC=C(C)C)CC2)CCC(=O)OCCOC(=O)C2CC=C(CC/C=C(\C)CCC=C(C)C)CC2)CCC(=O)OCCOC(=O)C2CC=C(CC/C=C(\C)CCC=C(C)C)CC2)CC1 (centres unmarked) [Compound 7] |  |  |  |  |
